Assay results reported in patent US20060025458A1, “Alkylammonium compounds as antifungal and antitrypanosomal agents” (University of Connecticut, priority 2004, published 2006).

Tests used:
[1] = test system: endogenous PtdSer decarboxylase activity; assay: Serine labeling: PtdEtn formation from PtdSer in P. falciparum-infected erythrocytes; assay type: cell-based, Plasmodium falciparum
Experimental: FIG. 10B. Effect of G25 on PtdEtn and PtdSer synthesis from serine. 5-6×10^7 synchronized P. falciparum-infected erythrocytes (7% trophozoite stage) were pre-incubated at 4% haematocrit for 1 h in RPMI-based medium containing the indicated concentration of G25 before adding 10 μM [^14C]-serine (57 mCi/mmol). After incubation at 37° C. for 3 h, the cellular lipids were extracted and fractionated on TLC plates for quantification of radioactivity in PtdSer (black diamonds), and PtdEtn (white circles).
(§1) Labeling Studies and Phospholipid Analysis in P. falciparum: Nigerian strains of P. falciparum were asexually cultured in the presence of basic medium (RPMI 1640 supplemented with 25 mM Hepes, pH 7.4) and 10% AB^+ human serum (Trager and Jensen, 1976). Parasite synchronization was obtained with three successive 5% sorbitol treatments (Lambros and Vanderberg, 1979). Synchronized P. falciparum-infected erythrocytes (7-10% parasitemia, trophozoites) were pre-incubated for 1 hour at 37° C. at 4% hematocrit in 2 ml (final volume) basic medium in the absence or the presence of different concentrations of the compound G25. The appropriate radioactive precursor of lipid metabolism was added followed by further 3 h of incubation. […] The silica gel of the lipid spots were scraped directly into scintillation vials containing 3 ml of liquid-scintillation fluid and counted in a Beckman LS 5000 spectrophotometer. The amount of labeled precursors incorporated into cellular lipids (nmol×10^7 cell^−1×h^−1) was computed on the basis of radioactivity incorporated into lipids and the specific activity of the precursors in the incubation medium.
The possible inhibition of PtdSer decarboxylase activity in P. falciparum by G25 was investigated. P. falciparum-infected erythrocytes were labeled with radiolabeled serine, which is readily incorporated into PtdSer, in the presence or absence of increasing concentrations of G25, and the effect of this compound on the parasite endogenous PtdSer decarboxylase activity was measured by following the formation of PtdEtn from PtdSer (FIG. 10B). […]

[2] = test system: P. falciparum and P. cynomolgi; settings: very low doses; cited from earlier work
S. cerevisiae = assay: Liquid growth inhibition assay of S. cerevisiae (OD600); assay type: cell-based, Saccharomyces cerevisiae
Experimental: Strains and Growth Conditions: Wild-type (BY4741: Mata his3Δ1 leu2Δ0 met15Δ0 ura3Δ0) and mutant (hnm1Δ, psd1Δ, cki1Δ, pem1Δ, ept1Δ, cpt1Δ, eki1Δ, psd2Δ, pct1Δ, ect1Δ, pem2Δ) S. cerevisiae strains used in this study were purchased from Research Genetics (Invitrogen, USA). These strains were grown on YPD (1% yeast extract, 2% dextrose and 2% peptone) or synthetic complete medium (SD, 1.7% yeast nitrogen base, 5% ammonium sulfate and 2% dextrose). The Nigerian strain of P. falciparum was propagated in human red blood cells at 4% hematocrit by the method of Trager and Jensen (1976). Plate growth assays were performed by growing wild-type and mutant yeast strains in YPD to mid-log phase. Cultures were serially diluted 1:10 starting with a density of 3×10^7 cells/ml. The growth of cells was monitored by spotting 3 μl of each dilution onto solid medium in the absence or presence of 5 μM of G25.
Twenty-one analogs including first, second and third generation (E2a, E6, E9, E13, E24, F4, G2, G4, G5, G14, GI5, G25, H5, L1, L4, M34, M53, MS1, T3 and T4) compounds (provided by Dr. Henri Vial, City, Country) were tested (FIG. 4). The choice of the compounds was such that they represent all possible structural features introduced during the optimization process for enhancing antimalarial activity as determined using the combinatorial chemistry techniques.
The antimalarial drug G25 inhibits the growth of Saccharomyces cerevisiae. […] Growth inhibition was assessed by measuring the OD600 and comparing it to that of the wild-type strain grown under the same conditions in the absence of the compound. […] This IC50 value is in the range of the predicted intracellular concentration of G25 in P. falciparum due to the accumulative properties inside the infected erythrocytes.

[3] = test system: de novo biosynthesis of PtdEtn from ethanolamine; assay: Incorporation of radiolabeled ethanolamine into PtdEtn in P. falciparum-infected erythrocytes; assay type: cell-based, Plasmodium falciparum; settings: concentrations up to 100 μM
Experimental: as §1, with “incubation. Radioactive precursors were used as follows: 30 μM [methyl-^3H]-choline (334 mCi/mmol), 2 μM [^3H]-ethanolamine (2 Ci/mmol) and 10 μM [3-^14C]-serine (57 mCi/mmol).” for “incubation.”, “medium. […]” for “medium.”

C[N+]1(CCCCCCCCCCCCCCCC[N+]2(C)CCCC2)CCCC1.[Br-].[Br-] [G25, 1,16-hexadecamethylenebis[N-methylpyrrolidinium]dibromide]
decrease in the pool of PtdEtn formed from PtdSer ([1]; 100 μM G25): 77% | effect on first step of the CDP-DAG pathway catalyzed by PtdSer synthase ([1]; 100 μM G25): no effect | total incorporation of serine ([1]; increasing concentrations of G25): not affected | malaria infection in monkeys [2]: cleared malaria infection | Inhibition of S. cerevisiae growth (in words) (S. cerevisiae; structure-activity comparison, Examples 2-4): inhibited | IC50 (S. cerevisiae; wild-type strain BY4741, 1×10^4 cells/ml, liquid medium, 30° C., 16 h, read-out: IC50, inhibition of yeast growth): 2.5 µM | effect on incorporation of radiolabeled ethanolamine into PtdEtn [3]: no effect
